Laboratory results from PubChem BioAssay (NCI).
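These data come from cells grown in 96-well plates and exposed to compound for 48 hours at five concentrations. Here, GI50 denotes the concentration required for 50% inhibition of growth. TGI: total growth inhibition.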

Tests used:
Assay in all cases: NCI anticancer screen, dose series, 48 h
786-0 renal = tested on: 786-0 renal
A498 renal = tested on: A498 renal
A549 NSCLC = tested on: A549 NSCLC
ACHN renal = tested on: ACHN renal
BT-549 breast = tested on: BT-549 breast
CCRF-CEM leukemia = tested on: CCRF-CEM leukemia
COLO 205 colon = tested on: COLO 205 colon
DU-145 prostate = tested on: DU-145 prostate
EKVX NSCLC = tested on: EKVX NSCLC
HCC-2998 colon = tested on: HCC-2998 colon
HCT-116 colon = tested on: HCT-116 colon
HCT-15 colon = tested on: HCT-15 colon
HL-60(TB) leukemia = tested on: HL-60(TB) leukemia
HOP-62 NSCLC = tested on: HOP-62 NSCLC
HOP-92 NSCLC = tested on: HOP-92 NSCLC
HS 578T breast = tested on: HS 578T breast
IGROV1 ovarian = tested on: IGROV1 ovarian
K-562 leukemia = tested on: K-562 leukemia
KM12 colon = tested on: KM12 colon
LOX IMVI melanoma = tested on: LOX IMVI melanoma
M14 melanoma = tested on: M14 melanoma
MALME-3M melanoma = tested on: MALME-3M melanoma
MCF7 breast = tested on: MCF7 breast
MDA-MB-231 breast = tested on: MDA-MB-231 breast
MDA-MB-435 = tested on: MDA-MB-435
MDA-MB-468 breast = tested on: MDA-MB-468 breast
MOLT-4 leukemia = tested on: MOLT-4 leukemia
NCI-H226 lung = tested on: NCI-H226 lung
NCI-H23 lung = tested on: NCI-H23 lung
NCI-H460 lung = tested on: NCI-H460 lung
OVCAR-4 ovarian = tested on: OVCAR-4 ovarian
OVCAR-5 ovarian = tested on: OVCAR-5 ovarian
OVCAR-8 ovarian = tested on: OVCAR-8 ovarian
PC-3 prostate = tested on: PC-3 prostate
RPMI-8226 leukemia = tested on: RPMI-8226 leukemia
RXF 393 renal = tested on: RXF 393 renal
SF-268 CNS = tested on: SF-268 CNS
SF-295 CNS = tested on: SF-295 CNS
SF-539 CNS = tested on: SF-539 CNS
SK-MEL-2 melanoma = tested on: SK-MEL-2 melanoma
SK-MEL-28 melanoma = tested on: SK-MEL-28 melanoma
SK-MEL-5 melanoma = tested on: SK-MEL-5 melanoma
SK-OV-3 ovarian = tested on: SK-OV-3 ovarian
SN12C renal = tested on: SN12C renal
SNB-19 CNS = tested on: SNB-19 CNS
SNB-75 CNS = tested on: SNB-75 CNS
SR leukemia = tested on: SR leukemia
T-47D breast = tested on: T-47D breast
TK-10 renal = tested on: TK-10 renal
U251 CNS = tested on: U251 CNS
UACC-257 melanoma = tested on: UACC-257 melanoma
UACC-62 melanoma = tested on: UACC-62 melanoma
UO-31 renal = tested on: UO-31 renal

CSc1ccc(C(=O)Nc2ccc3nn(/C(C#N)=C/c4ccccn4)nc3c2)cc1
GI50 (786-0 renal): 776 nM | TGI (786-0 renal): 1500 nM | GI50 (A498 renal): 5570 nM | TGI (A498 renal): 11900 nM | GI50 (A549 NSCLC): 2200 nM | TGI (A549 NSCLC): 11000 nM | GI50 (ACHN renal): 808 nM | TGI (ACHN renal): 1600 nM | GI50 (BT-549 breast): 920 nM | TGI (BT-549 breast): 1950 nM | GI50 (CCRF-CEM leukemia): 619 nM | TGI (CCRF-CEM leukemia): 50000 nM | GI50 (COLO 205 colon): 834 nM | TGI (COLO 205 colon): 1590 nM | GI50 (DU-145 prostate): 1250 nM | TGI (DU-145 prostate): 3850 nM | GI50 (EKVX NSCLC): 1260 nM | TGI (EKVX NSCLC): 5950 nM | GI50 (HCC-2998 colon): 854 nM | TGI (HCC-2998 colon): 1580 nM | GI50 (HCT-116 colon): 822 nM | TGI (HCT-116 colon): 1640 nM | GI50 (HCT-15 colon): 511 nM | TGI (HCT-15 colon): 1380 nM | GI50 (HL-60(TB) leukemia): 544 nM | TGI (HL-60(TB) leukemia): 2190 nM | GI50 (HOP-62 NSCLC): 1750 nM | TGI (HOP-62 NSCLC): 6640 nM | GI50 (HOP-92 NSCLC): 677 nM | TGI (HOP-92 NSCLC): 1930 nM | GI50 (HS 578T breast): 1700 nM | TGI (HS 578T breast): 12600 nM | GI50 (IGROV1 ovarian): 902 nM | TGI (IGROV1 ovarian): 1980 nM | GI50 (K-562 leukemia): 424 nM | TGI (K-562 leukemia): 3300 nM | GI50 (KM12 colon): 1060 nM | TGI (KM12 colon): 3080 nM | GI50 (LOX IMVI melanoma): 664 nM | TGI (LOX IMVI melanoma): 1340 nM | GI50 (M14 melanoma): 866 nM | TGI (M14 melanoma): 1880 nM | GI50 (MALME-3M melanoma): 797 nM | TGI (MALME-3M melanoma): 1960 nM | GI50 (MCF7 breast): 687 nM | TGI (MCF7 breast): 1650 nM | GI50 (MDA-MB-231 breast): 842 nM | TGI (MDA-MB-231 breast): 1740 nM | GI50 (MDA-MB-435): 759 nM | TGI (MDA-MB-435): 2560 nM | GI50 (MDA-MB-468 breast): 558 nM | TGI (MDA-MB-468 breast): 1360 nM | GI50 (MOLT-4 leukemia): 658 nM | TGI (MOLT-4 leukemia): 2270 nM | GI50 (NCI-H226 lung): 1640 nM | TGI (NCI-H226 lung): 9690 nM | GI50 (NCI-H23 lung): 769 nM | TGI (NCI-H23 lung): 1540 nM | GI50 (NCI-H460 lung): 934 nM | TGI (NCI-H460 lung): 2110 nM | GI50 (OVCAR-4 ovarian): 1740 nM | TGI (OVCAR-4 ovarian): 9640 nM | GI50 (OVCAR-5 ovarian): 990 nM | TGI (OVCAR-5 ovarian): 2510 nM | GI50 (OVCAR-8 ovarian): 1480 nM | TGI (OVCAR-8 ovarian): 14200 nM | GI50 (PC-3 prostate): 1510 nM | TGI (PC-3 prostate): 6330 nM | GI50 (RPMI-8226 leukemia): 901 nM | TGI (RPMI-8226 leukemia): 2970 nM | GI50 (RXF 393 renal): 699 nM | TGI (RXF 393 renal): 1360 nM | GI50 (SF-268 CNS): 1780 nM | TGI (SF-268 CNS): 8870 nM | GI50 (SF-295 CNS): 2360 nM | TGI (SF-295 CNS): 9150 nM | GI50 (SF-539 CNS): 811 nM | TGI (SF-539 CNS): 1530 nM | GI50 (SK-MEL-2 melanoma): 896 nM | TGI (SK-MEL-2 melanoma): 1900 nM | GI50 (SK-MEL-28 melanoma): 885 nM | TGI (SK-MEL-28 melanoma): 1820 nM | GI50 (SK-MEL-5 melanoma): 1390 nM | TGI (SK-MEL-5 melanoma): 4700 nM | GI50 (SK-OV-3 ovarian): 5180 nM | TGI (SK-OV-3 ovarian): 17500 nM | GI50 (SN12C renal): 1140 nM | TGI (SN12C renal): 2840 nM | GI50 (SNB-19 CNS): 2140 nM | TGI (SNB-19 CNS): 8790 nM | GI50 (SNB-75 CNS): 948 nM | TGI (SNB-75 CNS): 8250 nM | GI50 (SR leukemia): 327 nM | TGI (SR leukemia): 4180 nM | GI50 (T-47D breast): 1270 nM | TGI (T-47D breast): 10900 nM | GI50 (TK-10 renal): 935 nM | TGI (TK-10 renal): 2200 nM | GI50 (U251 CNS): 903 nM | TGI (U251 CNS): 1890 nM | GI50 (UACC-257 melanoma): 1280 nM | TGI (UACC-257 melanoma): 4190 nM | GI50 (UACC-62 melanoma): 819 nM | TGI (UACC-62 melanoma): 1720 nM | GI50 (UO-31 renal): 712 nM | TGI (UO-31 renal): 1390 nM
